7 compounds from ChEMBL document CHEMBL1132087, “New N-substituted 7-aminocephalosporanic acid derivatives as potential agents against Streptococcus pneumoniae. Synthesis and in vitro activity” (1999) can be followed below.

Holding throughout (type): functional
Assay [1] concerns Streptococcus pneumoniae. The assay is described as follows: In vitro antibacterial activity against the gram-positive bacteria, penicillin resistant Streptococcus pneumoniae (4636).
The test system of assay [2] is Staphylococcus aureus. The assay is described as follows: In vitro antibacterial activity against the gram-positive bacteria, penicillin sensitive Staphylococcus aureus (3072).
Assay [3] concerns Streptococcus pneumoniae. As to the kind of experiment: In vitro antibacterial activity against the gram-positive bacteria, penicillin resistant Streptococcus pneumoniae (4630).
Assay [4] relates to Staphylococcus aureus. The assay is described as follows: In vitro antibacterial activity against the gram-positive bacteria, penicillin resistant Staphylococcus aureus (2619).
In assay [5] the test system is Streptococcus pneumoniae. As to the kind of experiment: In vitro antibacterial activity against the gram-positive bacteria, penicillin resistant Streptococcus pneumoniae (4635).
In assay [6] the test system is Streptococcus pneumoniae. As to the kind of experiment: In vitro antibacterial activity against the gram-positive bacteria, penicillin sensitive Streptococcus pneumoniae (3272).
Assay [7] has as its system Streptococcus pneumoniae. As to the kind of experiment: In vitro antibacterial activity against the gram-positive bacteria, penicillin sensitive Streptococcus pneumoniae (3273).
Assay [8] has as its system Staphylococcus aureus. As to the kind of experiment: In vitro antibacterial activity against the gram-positive bacteria, penicillin resistant Staphylococcus aureus (2672).
Assay [9] relates to Streptococcus pneumoniae. The assay is described as follows: In vitro antibacterial activity against the gram-positive bacteria, penicillin sensitive Streptococcus pneumoniae (3512).
Another assay relates to Streptococcus pyogenes. The assay is described as follows: In vitro antibacterial activity against the gram-positive bacteria, erythromycin resistant Streptococcus pyogenes.
The test system of assay [10] is Staphylococcus aureus. The assay is described as follows: In vitro antibacterial activity against the gram-positive bacteria, penicillin resistant Staphylococcus aureus (853).
Assay [11] concerns Streptococcus pneumoniae. The assay is described as follows: In vitro antibacterial activity against the gram-positive bacteria, penicillin resistant Streptococcus pneumoniae (4629).
Assay [12] concerns Staphylococcus aureus. As to the kind of experiment: In vitro antibacterial activity against the gram-positive bacteria, penicillin sensitive Staphylococcus aureus (3849).
The test system of assay [13] is Staphylococcus aureus. As to the kind of experiment: In vitro antibacterial activity against the gram-positive bacteria, penicillin sensitive Staphylococcus aureus (663E).

Each structure is given as a SMILES string. Values after ≈ are worked out from the molar mass of the structure shown.

By MIC is commonly meant the lowest concentration found to suppress growth. A low value points to a more susceptible organism. As for `CC1(C)S[C@@H]2[C@H](NC(=O)[C@H](N)c3ccc(O)cc3)C(=O)N2[C@H]1C(=O)O.O=C(O)[C@H]1/C(=C/CO)O[C@@H]2CC(=O)N21`, the MIC is 4 µg/mL in the assay on Streptococcus pneumoniae [1]; 0.5 µg/mL in the assay on Staphylococcus aureus [2]; 2 µg/mL in the assay on Streptococcus pneumoniae [3]; 2 µg/mL with Staphylococcus aureus [4]; 4 µg/mL in the assay on Streptococcus pneumoniae [5]; under 0.015 µg/mL against Streptococcus pneumoniae [6]. For the same compound, the MIC in the assay with Streptococcus pneumoniae [7] is under 0.015 µg/mL; against Staphylococcus aureus [8], 1 µg/mL; with Streptococcus pneumoniae [9], under 0.015 µg/mL; against Streptococcus pyogenes, 0.06 µg/mL; in the assay with Staphylococcus aureus [10] it was 2 µg/mL; in the assay with Streptococcus pneumoniae [11], 4 µg/mL. Besides, the MIC against Staphylococcus aureus [12] and in the assay with Staphylococcus aureus [13] was 0.25 µg/mL in each case.
With `CC1(C)S[C@@H]2[C@H](NC(=O)Cc3ccccc3)C(=O)N2[C@H]1C(=O)O` [PENICILLIN G], the MIC with Streptococcus pneumoniae [1] is 8 µg/mL (≈ 23.9 µM); in the assay with Staphylococcus aureus [2], under 0.5 µg/mL; against Streptococcus pneumoniae [3], 4 µg/mL (≈ 12 µM); in the assay on Staphylococcus aureus [4], 64 µg/mL (≈ 191 µM); with Streptococcus pneumoniae [5] it was 8 µg/mL (≈ 23.9 µM); in the assay on Streptococcus pneumoniae [6] it was under 0.5 µg/mL. Besides, the MIC against Streptococcus pneumoniae [7] is 0.5 µg/mL (≈ 1.5 µM); in the assay on Staphylococcus aureus [8], 64 µg/mL (≈ 191 µM); with Streptococcus pneumoniae [9], under 0.5 µg/mL; with Staphylococcus aureus [10] it was 64 µg/mL (≈ 191 µM); against Streptococcus pneumoniae [11] it was 4 µg/mL (≈ 12 µM); with Staphylococcus aureus [12] it was under 0.5 µg/mL. Moreover, in the assay on Staphylococcus aureus [13], the MIC was under 0.5 µg/mL.
For the compound `CC(=O)OCC1=C(C(=O)O)N2C(=O)[C@@H](NC(=O)CN(OCc3cccc(Cl)c3)C(=O)c3ccccc3)C2SC1` (some centres not stated), the MIC came to 2 µg/mL (≈ 3.48 µM) against Streptococcus pneumoniae [1]; 0.5 µg/mL (≈ 0.871 µM) with Staphylococcus aureus [2]; 8 µg/mL (≈ 13.9 µM) against Streptococcus pneumoniae [3]; 1 µg/mL (≈ 1.74 µM) in the assay with Staphylococcus aureus [4]; 1 µg/mL (≈ 1.74 µM) with Streptococcus pneumoniae [5]; 0.06 µg/mL (≈ 0.105 µM) against Streptococcus pneumoniae [6]. The MIC against Streptococcus pneumoniae [7] was 0.12 µg/mL (≈ 0.209 µM); in the assay with Staphylococcus aureus [8], 4 µg/mL (≈ 6.97 µM); in the assay on Streptococcus pneumoniae [9], 0.06 µg/mL (≈ 0.105 µM); in the assay on Streptococcus pyogenes it was 0.25 µg/mL (≈ 0.436 µM); in the assay on Staphylococcus aureus [10] it was 0.5 µg/mL (≈ 0.871 µM); against Streptococcus pneumoniae [11], 8 µg/mL (≈ 13.9 µM). The MIC with Staphylococcus aureus [12] and with Staphylococcus aureus [13] was 0.5 µg/mL (≈ 0.871 µM) throughout.
In the case of `N[C@@H](C(=O)N[C@@H]1C(=O)N2C(C(=O)O)=C(Cl)CS[C@H]12)c1ccccc1` [CEFACLOR ANHYDROUS], the MIC in the assay with Streptococcus pneumoniae [1] is 16 µg/mL (≈ 43.5 µM); with Staphylococcus aureus [2], 4 µg/mL (≈ 10.9 µM); in the assay with Streptococcus pneumoniae [3] it was 16 µg/mL (≈ 43.5 µM); against Staphylococcus aureus [4], 16 µg/mL (≈ 43.5 µM); against Streptococcus pneumoniae [5], 16 µg/mL (≈ 43.5 µM); against Streptococcus pneumoniae [6] it was 1 µg/mL (≈ 2.72 µM). Moreover, the MIC in the assay on Streptococcus pneumoniae [7] was 0.5 µg/mL (≈ 1.36 µM); in the assay on Staphylococcus aureus [8] it was 64 µg/mL (≈ 174 µM); in the assay on Streptococcus pneumoniae [9], 1 µg/mL (≈ 2.72 µM); against Streptococcus pyogenes, 0.5 µg/mL (≈ 1.36 µM); in the assay on Staphylococcus aureus [10], 64 µg/mL (≈ 174 µM); against Streptococcus pneumoniae [11], 32 µg/mL (≈ 87 µM). Besides, the MIC in the assay with Staphylococcus aureus [12] and with Staphylococcus aureus [13] was 1 µg/mL (≈ 2.72 µM) each time.
As to `CC(=O)OCC1=C(C(=O)O)N2C(=O)[C@@H](NC(=O)CN(OCc3ccccc3Cl)C(=O)Nc3ccccc3)C2SC1` (some centres not stated), the MIC with Streptococcus pneumoniae [1] was determined as 8 µg/mL (≈ 13.6 µM); against Staphylococcus aureus [2] it was 0.5 µg/mL (≈ 0.849 µM); in the assay on Streptococcus pneumoniae [3], 8 µg/mL (≈ 13.6 µM); with Staphylococcus aureus [4], 1 µg/mL (≈ 1.7 µM); against Streptococcus pneumoniae [5] it was 4 µg/mL (≈ 6.79 µM); in the assay on Streptococcus pneumoniae [6] it was 0.25 µg/mL (≈ 0.424 µM). The MIC against Streptococcus pneumoniae [7] was determined as 0.25 µg/mL (≈ 0.424 µM); with Staphylococcus aureus [8], 2 µg/mL (≈ 3.4 µM); with Streptococcus pneumoniae [9] it was 0.12 µg/mL (≈ 0.204 µM); against Streptococcus pyogenes, 0.12 µg/mL (≈ 0.204 µM); against Staphylococcus aureus [10], 2 µg/mL (≈ 3.4 µM); in the assay with Streptococcus pneumoniae [11], 8 µg/mL (≈ 13.6 µM). The MIC with Staphylococcus aureus [12] and against Staphylococcus aureus [13] was 0.5 µg/mL (≈ 0.849 µM) throughout.
On to `CO/N=C(\C(=O)N[C@@H]1C(=O)N2C(C(=O)[O-])=C(C[n+]3cccc4c3CCC4)CS[C@H]12)c1csc(N)n1` [CEFPIROME], for which the MIC against Streptococcus pneumoniae [1] was under 0.5 µg/mL; with Staphylococcus aureus [2] it was 1 µg/mL (≈ 1.94 µM); in the assay with Streptococcus pneumoniae [3], 1 µg/mL (≈ 1.94 µM); in the assay on Staphylococcus aureus [4], 2 µg/mL (≈ 3.89 µM); in the assay on Streptococcus pneumoniae [5], under 0.5 µg/mL; against Streptococcus pneumoniae [6], 0.06 µg/mL (≈ 0.117 µM). Further, the MIC in the assay with Streptococcus pneumoniae [7] is 0.06 µg/mL (≈ 0.117 µM); against Staphylococcus aureus [8], 2 µg/mL (≈ 3.89 µM); with Streptococcus pneumoniae [9], 0.06 µg/mL (≈ 0.117 µM); with Streptococcus pyogenes, 0.03 µg/mL (≈ 0.0583 µM); in the assay on Staphylococcus aureus [10], 2 µg/mL (≈ 3.89 µM); against Streptococcus pneumoniae [11] it was 2 µg/mL (≈ 3.89 µM). Besides, the MIC against Staphylococcus aureus [12] and against Staphylococcus aureus [13] was 1 µg/mL (≈ 1.94 µM) each time.
Take `CC(=O)OCC1=C(C(=O)O)N2C(=O)[C@@H](NC(=O)CN(OCc3ccccc3Cl)C(=O)c3ccccc3)C2SC1` (some centres not stated): the MIC is 32 µg/mL (≈ 55.7 µM) in the assay on Streptococcus pneumoniae [1]; 1 µg/mL (≈ 1.74 µM) with Staphylococcus aureus [2]; 16 µg/mL (≈ 27.9 µM) against Streptococcus pneumoniae [3]; 4 µg/mL (≈ 6.97 µM) in the assay on Staphylococcus aureus [4]; 16 µg/mL (≈ 27.9 µM) against Streptococcus pneumoniae [5]; 0.25 µg/mL (≈ 0.436 µM) in the assay on Streptococcus pneumoniae [6]. In addition, the MIC with Streptococcus pneumoniae [7] is 0.25 µg/mL (≈ 0.436 µM); against Staphylococcus aureus [8] it was 8 µg/mL (≈ 13.9 µM); against Streptococcus pneumoniae [9], 0.25 µg/mL (≈ 0.436 µM); in the assay on Streptococcus pyogenes, 0.5 µg/mL (≈ 0.871 µM); in the assay with Staphylococcus aureus [10], 1 µg/mL (≈ 1.74 µM); in the assay on Streptococcus pneumoniae [11] it was 16 µg/mL (≈ 27.9 µM). Also, the MIC came to 0.5 µg/mL (≈ 0.871 µM) in the assay with Staphylococcus aureus [12] and 1 µg/mL (≈ 1.74 µM) in the assay with Staphylococcus aureus [13].
